Data published in EP0369733A2, “Fluorescent indicator dyes for alkali metal cations, their preparation and use” (THE REGENTS OF THE UNIVERSITY OF CALIFORNIA, priority 1988, dated 1990).

Experiments:
physchem [1] = test: physchem
Protocol: The lowest curve ([Na⁺] = 0) was obtained with 5 µM SBFI in 130 mM KCl, 10 mM MOPS, KOH to pH 7.05, approximately 135 mM total K⁺. The highest curve ([Na⁺] = 135 mM) was analogously recorded from 5 µM SBFI in 130 mM NaCl, 10 mM MOPS, NaOH to pH 7.05. The intermediate curves from 1.35 to 94.5 mM Na⁺ were obtained by successively 1/100, 1/99, 3/98, 1/19, 1/9, 1/4, and 1/2 of the K⁺-rich SBFI solution by the SBFI in Na medium. The excitation bandwidth was 1.85 nm; emission was collected at 500 nm with 9.3 nm bandwidth. […] The lowest curve was obtained in 130 mM NaCl, 10 mM MOPS, NaOH to pH 7.05. The highest curve was in 130 mM KCl, 10 mM MOPS, KOH to pH 7.05. The intermediate curves with 13.5 to 112.5 mM K⁺ were obtained by iteratively replacing 1/10, 1/9, 1/6, 1/4, 1/3, and 1/2 of the low K⁺ medium by the 135 mM KCl solution of PBFP.
Proton dissociation constants of the chelators were measured by spectrophotometry or spectrofluorometry of buffered solutions, containing either 100 mM tetramethylammonium chloride as inert supporting electrolyte, or 121.5 mM K⁺, 13.5 mM Na⁺, and 1 mM Mg²⁺ to simulate the cation environment of vertebrate cytoplasm (14). […] When the chelators contained two protonatable nitrogens, the curve of absorbance or fluorescence versus pH was analyzed by computerized least-squares fitting to the equations for two arbitrary proton equilibria (15), with the added assumption that the two protonations each caused the same change in extinction coefficient or fluorescence. This assumption was based on the presence of two identical chromophores in each chelator and produced good fits to the experimental data.

[2] = Fluorescence excitation/emission spectra and quantum efficiency; type: physicochemical; settings: for Emission maxima -Na⁺: 100 mM tetramethylammonium chloride; for Emission maxima -Na⁺ / Quantum efficiency -Na⁺: no Na⁺; for Emission maxima -Na⁺ / Emission maxima +Na⁺: not corrected for detector sensitivity; for Quantum efficiency -Na⁺ / Quantum efficiency +Na⁺: relative to quinine bisulfate in 1 N H₂SO₄ (0.55); for Emission maxima +Na⁺, footnote l / Quantum efficiency +Na⁺, footnote l: saturating K⁺ rather than Na⁺; for Emission maxima +Na⁺: saturating NaCl; for Quantum efficiency +Na⁺: saturating Na⁺
Protocol: (§1) • Footnote a: For molecular structures, see Fig. 1. • Footnote b: Except where otherwise noted, these dissociation constants were measured with the chelator dissolved in 0.1 M tetramethylammonium chloride, at a pH held high enough with 1-5 mM tris(hydroxymethyl)aminomethane for protonation to be insignificant. The absorbance spectrum, or the fluorescence excitation spectrum for those compounds (2GG, 2NN, 2OO, 2PP, 3NN) with acronyms was measured as a function of the concentration of cation added as a solid or concentrated aqueous solution of the halide salt. No correction has been made for the changing ionic strength of the solution, which started from 0.1 M and increased, but the absorbances and fluorescence amplitudes were applied for dilution of the dye and any slight quenching due to high concentrations of Cl⁻. • Footnote c: These protonation constants were determined in 0.1 M tetramethylammonium chloride, 10 mM tris(hydroxymethyl)aminomethane, titrated with 5 M H₃PO₄ to successively lower pH values measured with a Radiometer PHM84 meter. […] The first number is the wavelength in nanometers, followed in parentheses by 10⁻³ x the corresponding extinction coefficient, M⁻¹cm⁻¹. […] Emission maxima are not corrected for the spectral sensitivity of the emission detection. Quantum efficiencies were measured (13) by comparing the integral of the corrected emission spectrum with the corresponding integral for a solution of quinine bisulfate in 1 N H₂SO₄ of matched absorbance at the excitation wavelength.
(§2) UV absorbance spectra were recorded initially on a Cary 210 and later on a Perkin-Elmer Lambda Array 3840 spectrophotometer. Fluorescence excitation and emission spectra and quantum efficiencies were measured on a Spex Fluorolog 111 as described previously (13).

[3] = Cation titration followed by absorbance or fluorescence excitation spectra: K⁺ binding; settings: 0.1 M tetramethylammonium chloride, 1-5 mM tris(hydroxymethyl)aminomethane, high pH; read-out: Dissociation constants (Kd) in mM for K⁺
Protocol: as §1
Affinities for other cations were usually measured by titrating aqueous solutions of the indicator with metal chlorides added either as solid or from concentrated stock solutions, taking care to minimize dilution and correct for it. […] This convenient titration procedure had the slight disadvantage that the ionic strength was not constant, especially when large quantities of a salt had to be added due to weak affinities. […]

[4] = UV absorbance spectra without and with saturating cation; type: physicochemical; settings: for Absorbance maxima -Na⁺ (wavelength): 100 mM tetramethylammonium chloride plus 1-5 mM Tris; for Absorbance maxima -Na⁺ (wavelength) / Absorbance maxima -Na⁺ (extinction coefficient): no Na⁺; for Absorbance maxima -Na⁺ (extinction coefficient) / Absorbance maxima +Na⁺, footnote l (extinction coefficient) / Absorbance maxima +Na⁺ (extinction coefficient): number is 10⁻³ x the extinction coefficient; for Absorbance maxima -Na⁺ (extinction coefficient): lower limits for most compounds; for Absorbance maxima +Na⁺, footnote l (extinction coefficient) / Absorbance maxima +Na⁺, footnote l (wavelength): saturating K⁺ rather than Na⁺; for Absorbance maxima +Na⁺ (wavelength): enough NaCl added (0.2-1 M) to saturate the Na⁺ binding; for Absorbance maxima +Na⁺ (extinction coefficient): lower limits, saturating NaCl (0.2-1 M)
Protocol: as §1, §2

[5] = Solubility in water for spectrophotometry; type: physicochemical
physchem [6] = settings: 0.1 m tetramethylammonium chloride
Protocol: (§4) • Footnote a: For molecular structures, see Fig. 1. • Footnote b: Except where otherwise noted, these dissociation constants were measured with the chelator dissolved in 0.1 M tetramethylammonium chloride, at a pH held high enough with 1-5 mM tris(hydroxymethyl)aminomethane for protonation to be insignificant. […] No correction has been made for the changing ionic strength of the solution, which started from 0.1 M and increased, but the absorbances and fluorescence amplitudes were applied for dilution of the dye and any slight quenching due to high concentrations of Cl⁻. • Footnote c: These protonation constants were determined in 0.1 M tetramethylammonium chloride, 10 mM tris(hydroxymethyl)aminomethane, titrated with 5 M H₃PO₄ to successively lower pH values measured with a Radiometer PHM84 meter.
(§5) Proton dissociation constants of the chelators were measured by spectrophotometry or spectrofluorometry of buffered solutions, containing either 100 mM tetramethylammonium chloride as inert supporting electrolyte, or 121.5 mM K⁺, 13.5 mM Na⁺, and 1 mM Mg²⁺ to simulate the cation environment of vertebrate cytoplasm (14). Traces of UV-absorbing impurities in the tetramethylammonium chloride (Alfa Inorganics) were removed by filtration through acid-­washed activated charcoal. The concentration of the tetramethylammonium chloride was then measured by chloride titration, and the absence of significant Na⁺ contamination was verified with a sodium-selective glass electrode (Microelectrodes Inc.). When the chelators contained two protonatable nitrogens, the curve of absorbance or fluorescence versus pH was analyzed by computerized least-squares fitting to the equations for two arbitrary proton equilibria (15), with the added assumption that the two protonations each caused the same change in extinction coefficient or fluorescence.

[7] = Cation titration followed by absorbance or fluorescence excitation spectra: Na⁺ binding
Protocol: as §1
(§3) Affinities for other cations were usually measured by titrating aqueous solutions of the indicator with metal chlorides added either as solid or from concentrated stock solutions, taking care to minimize dilution and correct for it. A convenient way to mass-produce premeasured micromole to millimole aliquots of solid NaCl or KCl was to pipet saline solutions into polypropylene micro test tubes and evaporate the water in an oven. The standard ionic background was again 100 mM tetramethylammonium chloride, usually with a few mM of tris(hydroxymethyl)-aminomethane base to hold the pH high enough (pH 8-9) to insure that protonation was negligible. This convenient titration procedure had the slight disadvantage that the ionic strength was not constant, especially when large quantities of a salt had to be added due to weak affinities. […] When constant ionic strength was desired, the chelator was made up at identical concentrations in matched solutions of NaCl, KCl, or tetramethylammonium chloride, then these stocks were mixed in the desired proportions. All measurements were made at room temperature (22°, ±2° C).

[8] = Proton dissociation constants in 0.1 M tetramethylammonium chloride; settings: second value (second protonation), 10 mM Tris titrated with 5 M H₃PO₄
Protocol: as §4, §5

[9] = Cation titration followed by absorbance or fluorescence excitation spectra: Mg²⁺ binding; settings: 0.1 M tetramethylammonium chloride, 1-5 mM tris(hydroxymethyl)aminomethane, high pH; read-out: Dissociation constants (Kd) in mM for Mg²⁺
Protocol: as §1
as §3, with “proportions.” for “proportions. All measurements were made at room temperature (22°, ±2° C).”

[10] = Cation titration followed by absorbance or fluorescence excitation spectra: Ca²⁺ binding; settings: 0.1 M tetramethylammonium chloride, 1-5 mM tris(hydroxymethyl)aminomethane, high pH; read-out: Dissociation constants (Kd) in mM for Ca²⁺
Protocol: as §1, §3

[11] = quinine bisulfate in 1 N H₂SO₄; assumed value; cited from earlier work
[12] = 0.1 M tetramethylammonium chloride, 1-5 mM tris(hydroxymethyl)aminomethane, pH high enough for protonation to be insignificant, 22°, read-out: Dissociation constants (Kd) in mM for Na⁺

Row | Compound | pKa (physchem [1]; 126 mm kcl, 14 mm nacl) | Emission maxima -Na⁺ [2] [nanometers] | Quantum efficiency -Na⁺ [2] | Emission maxima +Na⁺, footnote l [2] | Quantum efficiency +Na⁺, footnote l [2] | Kd [3] [mM] | Absorbance maxima -Na⁺ (wavelength) [4] [nanometers] | Absorbance maxima -Na⁺ (extinction coefficient) [4] [M⁻¹ cm⁻¹] | Absorbance maxima +Na⁺, footnote l (extinction coefficient) [4] [M⁻¹ cm⁻¹] | Absorbance maxima +Na⁺, footnote l (wavelength) [4] [nanometers] | pKa (physchem [6]) | Emission maxima +Na⁺ [2] [nanometers] | Kd [7, 12] [mM] | pKa [8] | Absorbance maxima +Na⁺ (wavelength) [4] [nanometers] | Absorbance maxima +Na⁺ (extinction coefficient) [4] [M⁻¹ cm⁻¹] | Kd [9] [mM] | Kd [10] [mM] | further results
1 | N,N-bis-(1-acetamidoacridin-4-yl)-diaza[15]-crown-5 [Compound 2HH] | – | – | – | – | – | – | – | – | – | – | – | – | – | – | – | – | – | – | solubility in water [5]: insufficiently soluble in water for spectrophotometry
2 | COc1cc2cc(-c3ncc(C(=O)O)o3)oc2cc1N1CCOCCOCCN(c2cc3oc(-c4ncc(C(=O)O)o4)cc3cc2OC)CCOCC1 [Compound 2OO, N,N-bis-(2-(5-carboxyoxazol-2-yl)-5-methoxybenzofuran-6-yl)-diaza[15]-crown-5] | 4.82 | 515 | – | – | – | – | 355 | 25000 | – | – | 5.34 | 500 | 50 | 4.15 | 343 | 27000 | 63 | – | Quantum efficiency -Na⁺ ([2]; listed as 2OO (SBFO)): .14; Quantum efficiency -Na⁺ ([2]; listed as SBFO): 0.14; Quantum efficiency +Na⁺ ([2]; listed as 2OO (SBFO)): .44; Quantum efficiency +Na⁺ ([2]; listed as SBFO): 0.44; Na⁺ affinity ([7]; association constant, inert background cation (tetramethylammonium)): 20 M⁻¹; Kd ([7]; footnote h: 3.0 M ionic strength (3.0 M NaCl mixed with 3.0 M tetramethylammonium chloride), read-out: Dissociation constants (Kd) in mM for Na⁺): 22 mM
3 | COc1cc2cc(-c3ccc(C(=O)O)c(C(=O)O)c3)oc2cc1N1CCOCCOCCN(c2cc3oc(-c4ccc(C(=O)O)c(C(=O)O)c4)cc3cc2OC)CCOCC1 [Compound 2NN, N,N-bis-(2-(3,4-dicarboxyphenyl)-5-methoxybenzofuran-6-yl)-diaza[15]-crown-5] | 6.4 | 528 | .036 | – | – | – | 342 | 45500 | – | – | 6.3 | 505 | 8.5 | 5.5 | 334 | 51600 | 18 | 40 | Quantum efficiency +Na⁺ [2]: .091; Kd ([7]; summary statement, conditions not specified, read-out: dissociation constant (Na⁺), range achieved): 5 to 20 mM
4 | C=C[C@H]1C[N@@]2CC[C@H]1C[C@H]2[C@H](O)c1ccnc2ccc(OC)cc12 [Quinine, quinine bisulfate] | – | – | – | – | – | – | – | – | – | – | – | – | – | – | – | – | – | – | quantum efficiency of reference standard [11]: 0.55

Now from value to compound, other results behind:

Row | pKa (physchem [1]; 126 mm kcl, 14 mm nacl) | Emission maxima -Na⁺ [2] [nanometers] | Quantum efficiency -Na⁺ [2] | Emission maxima +Na⁺, footnote l [2] | Quantum efficiency +Na⁺, footnote l [2] | Kd [3] [mM] | Absorbance maxima -Na⁺ (wavelength) [4] [nanometers] | Absorbance maxima -Na⁺ (extinction coefficient) [4] [M⁻¹ cm⁻¹] | Absorbance maxima +Na⁺, footnote l (extinction coefficient) [4] [M⁻¹ cm⁻¹] | Absorbance maxima +Na⁺, footnote l (wavelength) [4] [nanometers] | pKa (physchem [6]) | Emission maxima +Na⁺ [2] [nanometers] | Kd [7, 12] [mM] | pKa [8] | Absorbance maxima +Na⁺ (wavelength) [4] [nanometers] | Absorbance maxima +Na⁺ (extinction coefficient) [4] [M⁻¹ cm⁻¹] | Kd [9] [mM] | Kd [10] [mM] | Compound | further results
5 | 6.68 | 518 | .0075 | 494^l nanometers | .12^l | 83 | 344 | 23000 | 25000 | 337 | – | – | – | – | – | – | – | – | COc1cc2cc(-c3ccc(C(=O)O)c(C(=O)O)c3)oc2cc1N1CCOCCOCCN(c2cc3oc(-c4ccc(C(=O)O)c(C(=O)O)c4)cc3cc2OC)CCOCCOCC1 [Compound 3NN, N,N-bis(2-(3,4-dicarboxyphenyl)-5-methoxybenzofuran-6-yl)-diaza[18]-crown-5] | –
6 | – | 545 | .024 | 504^l nanometers | .072^l | 8 | 350 | 42000 | 42000 | 344 | – | – | 21 | – | – | – | 40 | 16 | COc1cc2cc(-c3ccc(C(=O)O)cc3C(=O)O)oc2cc1N1CCOCCOCCN(c2cc3oc(-c4ccc(C(=O)O)cc4C(=O)O)cc3cc2OC)CCOCCOCC1 [Compound 3PP] | pKa (physchem [1]): 5.78
